Consider one compound from paper PMC10145249, “Synthesis and Evaluation of ^68Ga-Labeled (2S,4S)-4-Fluoropyrrolidine-2-Carbonitrile and (4R)-Thiazolidine-4-Carbonitrile Derivatives as Novel Fibroblast Activation Protein-Targeted PET Tracers for Cancer Imaging” (Molecules, 2023).

The nature of series [1]: LogD7.4 measurement (n-octanol / phosphate buffer pH 7.4). Format: physicochemical. To be noted: n-octanol / 0.1 M phosphate buffer pH 7.4, n = 3. As for the experimental part: Briefly, ^68Ga-labeled tracers (1.11–1.48 MBq) were aliquoted into vials containing 3 mL of n-octanol and 3 mL of 0.1 M phosphate buffer (pH 7.4) in triplicate. Each vial was then vortexed (1 min) and centrifuged (5000 RPM, 10 min). The n-octanol and aqueous layers were sampled (1 mL) and counted using an automated gamma counter and the LogD7.4 value was calculated using the following equation: LogD7.4=log10counts in n-octanol phase/counts in buffer phase

On the set-up of series [2]: method as in PMID 30072500. To be noted: patients, preliminary dosimetry study; cited from earlier work.
Series [3] concerns HEK293T:hFAP tumor-bearing mice. Briefly: Ex vivo biodistribution in HEK293T:hFAP tumor xenograft mouse model. The following applies: HEK293T:hFAP tumor-bearing mice, 1 h pi, unblocked. As for the experimental part:
Imaging and biodistribution studies were performed using immunodeficient male NRG (NOD.Cg-Rag1tm1Mom Il2rgtm1Wjl/SzJ) mice. All experiments were conducted according to the guidelines established by the Canadian Council on Animal Care and approved by Animal Ethics Committee of the University of British Columbia. The mice were subcutaneously inoculated with 7.5 × 10^6 HEK293T:hFAP cells in the left dorsal flank. When the tumors grew to 6–8 mm in diameter, the mice were used for PET/CT imaging and biodistribution studies.
For biodistribution studies, the mice were injected with ~1–2 MBq (0.01–0.04 nmol) of the ^68Ga-labeled tracer, using the exact procedures described above. At 1 h post injection, the mice were euthanized by CO2 inhalation. Blood was withdrawn by cardiac puncture and organs/tissues of interest were collected, weighed, and counted using a Perkin Elmer (Waltham, MA, USA) Wizard2 2480 automatic gamma counter. The percent injected dose per gram of tissues (%ID/g) for different tracers was calculated.
For blocking studies, HEK293T:hFAP tumor-bearing mice were co-injected with [^68Ga]Ga-SB03045 and excess nonradioactive Ga-FAPI-04 (0.5 mg/mouse) as a competitor. Imaging and biodistribution were performed at 1 h pi, similar to the process for the unblocked mice.

In series [1], `N#C[C@@H]1CC(F)(F)CN1C(=O)CNC(=O)c1ccnc2ccc(OCCCN3CCN(C(=O)CN4CCN5CCN(CC(=O)O)CCN(CC4)CC(=O)[O][68Ga+][O]C(=O)C5)CC3)cc12` [[^68Ga]Ga-FAPI-04, reference compound] showed a LogD7.4 of −1.92 ± 0.35. In series [2], the “Drop of tumor uptake from 1 to 3 h post-injection” value is on record as 25%. Also, in series [3], the “Adrenal Glands uptake” value is reported as 1.31 ± 0.60 %ID/g, the Blood uptake stood at 1.20 ± 0.30 %ID/g, the Bone uptake came out at 3.79 ± 1.36 %ID/g and the Brain uptake was 0.05 ± 0.01 %ID/g. Also, in series [3], the Fat uptake came out at 0.14 ± 0.06 %ID/g, the Heart uptake was found to be 0.37 ± 0.08 %ID/g, the Kidneys uptake came to 1.88 ± 0.18 %ID/g and the Liver uptake turned out to be 0.40 ± 0.07 %ID/g. In series [3], the Lungs uptake is 0.80 ± 0.16 %ID/g, the Muscle uptake was determined as 0.76 ± 0.20 %ID/g, the Pancreas uptake is reported as 0.44 ± 0.16 %ID/g and the “Small Intestines uptake” value is reported as 0.37 ± 0.07 %ID/g. Besides, in series [3], the Spleen uptake was 0.60 ± 0.14 %ID/g, the Stomach uptake amounted to 0.16 ± 0.19 %ID/g, the Testes uptake was found to be 0.28 ± 0.04 %ID/g and the Tumor/Blood uptake ratio stood at 10.5 ± 3.25. In series [3], the Tumor/Bone uptake ratio is reported as 3.49 ± 1.41, the Tumor/Kidney uptake ratio amounted to 6.41 ± 1.52 and the Tumor/Muscle uptake ratio is 16.8 ± 5.73.
